# From patent US9084769B2, “Compositions comprising non steroidal anti-inflammatory drugs and methods for use thereof” (priority 2011, dated 2015)
# Like-named read-outs stand apart in the source and are kept apart here.
# Experiments:
# [1] = changes in hemoglobin over seven weeks (HemoCue Hb 201); type: in vivo; details: mice followed for seven weeks, blood on days 0, 14, 28, 49; FIG. 3
# Experimental: To investigate changes in Hb, mice treated with Epi, Ibu, ZnCar, Nap, Cox, Ibu+Epi, Ibu+ZnCar, and Ibu+Epi+ZnCar were used. A total of 5 mice per group were used. Mice were followed for seven weeks and blood was drawn on days 0, 14, 28, and 49. Hemoglobin was assessed in blood drawn from mice using a HemoCue Hb 201 analyzer. A drop of mouse blood was placed on a HemoCue microcuvette and assessed immediately. Measurements were recorded in millimole per liter.
# [2] = tested on: Carrageenin-induced hind paw edema; assay: Carrageenin-induced hind paw edema; type: in vivo, SD rats; details: oral, specific predetermined doses; plethysmometer, baseline and three hours after induction
# Experimental: C57Bl/6 mice and Sprague-Dawley (SD) rats were used. Animals were group-housed under controlled temperature (25° C.) and photoperiods (12:12-hour light-dark cycle), and allowed unrestricted access to standard diet and tap water, unless otherwise noted. Animals were allowed to acclimate to these conditions for at least 7 days before inclusion in experiments. For each group of experiments, animals were matched by age, sex, and body weight. Care and experimentation of mice were performed in accordance with guidelines under protocols approved by the Institutional Animal Care and Use Committee. To evaluate the effects of inflammation, Epi, ZnCar, Ibu, Nap, Cox, Ibu+Epi, Ibu+ZnCl, Ibu+ZnSt, Ibu+ZnCar, Ibu+Epi+ZnCl, and Ibu+Epi+ZnCar were administered in specific predetermined doses. Six rats were used in each group. Carrageenin-induced hind paw edema was established in SD rats using Lambda-carrageenin solution injected so into the right hind paw within the first hour of oral administration of these drugs. The paw volume was estimated using a plethysmometer both at baseline and three hours following induction.
# [3] = tested on: acetylcholine-induced mouse writing model; assay: acetylcholine-induced mouse writing model (analgesic effects); type: in vivo, mice; details: oral, predetermined ED50 dose ranges, 30 min before i.p. acetylcholine; writhes counted for 30 min; FIG. 1
# Experimental: C57Bl/6 mice and Sprague-Dawley (SD) rats were used. Animals were group-housed under controlled temperature (25° C.) and photoperiods (12:12-hour light-dark cycle), and allowed unrestricted access to standard diet and tap water, unless otherwise noted. Animals were allowed to acclimate to these conditions for at least 7 days before inclusion in experiments. For each group of experiments, animals were matched by age, sex, and body weight. Care and experimentation of mice were performed in accordance with guidelines under protocols approved by the Institutional Animal Care and Use Committee.
# To evaluate the effects of pain, the analgesic effects of Epi, ZnCar, Ibu, Nap, Cox, Ibu+Epi, Ibu+ZnCl, Ibu+ZnSt, Ibu+ZnCar, Ibu+Epi+ZnCl, and Ibu+Epi+ZnCar were tested in acetylcholine-induced (8.3 mg/kg, i.p.) mouse writing model. Seven mice were used in each group and were administered drugs orally at predetermined ED50 dose ranges. Thirty minutes after the oral administration of test drug, mice were provided with an intraperitoneal injection of 5.5 mg/kg acetylcholine bromide. […] The number of writhes was counted for 30 min and percentage nociception was calculated and correlatively compared between the groups.
Molecule,change in hemoglobin [1],"change in systolic blood pressure (in words) (mice, measured daily, tail-cuff, p<0.05)","clinical response, paw volume 3 hours after carrageenin injection [2]","antinociceptive response (number of writhes, percentage nociception) [3]","change in systolic blood pressure (in words) (mouse, in vivo)","systolic blood pressure (mean) (mouse, in vivo) [mmHg]"
"Cc1ccc(-c2cc(C(F)(F)F)nn2-c2ccc(S(N)(=O)=O)cc2)cc1 [Cox, celecoxib]",progressive decrease in hemoglobin,significant elevations in systolic blood pressure,,,,
"O=C[C@@H](O)[C@@H](O)[C@H](O[C@@H]1O[C@H](CO)[C@H](O)[C@H](O)[C@H]1O)[C@H](O)CO [Epi, 4-O-β-galactopyranosyl-d-mannose]",,,did not exhibit therapeutic efficacy in the management of acute inflammation,did not exhibit therapeutic efficacy in the management of acute pain,,
"CC(C)Cc1ccc(C(C)C(=O)O)cc1 (centres unmarked) [Ibu, ibuprofen]",progressive highly significant decrease in hemoglobin,,,,significant elevations in systolic blood pressure,129.3
"COc1ccc2cc([C@H](C)C(=O)O)ccc2c1 [Nap, naproxen]",progressive decrease in hemoglobin,,,,significant elevations in systolic blood pressure,
zinc carnosine [ZnCar],,,did not exhibit therapeutic efficacy in the management of acute inflammation,did not exhibit therapeutic efficacy in the management of acute pain,,
